Earlier results in patent US20060073539A1 (priority 2001, published 2006).

System: human hepatocyte and neuroblastoma cells
Settings: cited from earlier work

SMILES | effect on cell metabolism
CCOP(=S)(OCC)Oc1ccc([N+](=O)[O-])cc1 [parathion] | opposite effects
CCOP(=O)(OCC)Oc1ccc([N+](=O)[O-])cc1 [paraoxon] | opposite effects
